The target of experiment [1] is T1, Ankyrin repeat and protein kinase domain-containing protein 1 (Homo sapiens) (UniProt Q8NFD2).
T1 sequence (whole entry): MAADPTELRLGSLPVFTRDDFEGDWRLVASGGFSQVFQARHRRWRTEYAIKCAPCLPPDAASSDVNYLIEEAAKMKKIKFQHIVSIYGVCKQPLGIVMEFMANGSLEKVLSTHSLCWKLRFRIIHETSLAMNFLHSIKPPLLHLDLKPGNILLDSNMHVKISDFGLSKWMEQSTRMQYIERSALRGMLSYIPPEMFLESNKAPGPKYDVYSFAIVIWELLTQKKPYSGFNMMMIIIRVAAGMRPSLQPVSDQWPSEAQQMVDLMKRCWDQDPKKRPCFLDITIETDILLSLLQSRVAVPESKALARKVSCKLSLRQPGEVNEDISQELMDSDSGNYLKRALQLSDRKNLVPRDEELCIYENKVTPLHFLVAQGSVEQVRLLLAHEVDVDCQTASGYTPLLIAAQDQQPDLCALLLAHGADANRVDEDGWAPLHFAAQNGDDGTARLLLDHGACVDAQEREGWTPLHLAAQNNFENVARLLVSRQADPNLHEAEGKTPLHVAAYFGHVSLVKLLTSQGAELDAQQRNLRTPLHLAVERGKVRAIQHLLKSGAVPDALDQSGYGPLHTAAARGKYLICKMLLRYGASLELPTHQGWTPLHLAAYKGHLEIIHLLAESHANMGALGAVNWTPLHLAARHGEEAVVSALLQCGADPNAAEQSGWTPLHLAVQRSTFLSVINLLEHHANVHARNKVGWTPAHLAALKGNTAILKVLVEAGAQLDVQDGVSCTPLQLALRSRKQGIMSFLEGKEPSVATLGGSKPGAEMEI
Put plainly: Selectivity interaction (LanthaScreen Eu Kinase Binding Assay) EUB0001632a ANKK1. Particulars: at 10 µM. For orientation: TR-FRET usually uses a lanthanide donor and a delayed reading to cut background.

The target in experiment [2] is T2, Muscarinic acetylcholine receptor M2 (Homo sapiens) (UniProt P08172).
T2 sequence (whole entry): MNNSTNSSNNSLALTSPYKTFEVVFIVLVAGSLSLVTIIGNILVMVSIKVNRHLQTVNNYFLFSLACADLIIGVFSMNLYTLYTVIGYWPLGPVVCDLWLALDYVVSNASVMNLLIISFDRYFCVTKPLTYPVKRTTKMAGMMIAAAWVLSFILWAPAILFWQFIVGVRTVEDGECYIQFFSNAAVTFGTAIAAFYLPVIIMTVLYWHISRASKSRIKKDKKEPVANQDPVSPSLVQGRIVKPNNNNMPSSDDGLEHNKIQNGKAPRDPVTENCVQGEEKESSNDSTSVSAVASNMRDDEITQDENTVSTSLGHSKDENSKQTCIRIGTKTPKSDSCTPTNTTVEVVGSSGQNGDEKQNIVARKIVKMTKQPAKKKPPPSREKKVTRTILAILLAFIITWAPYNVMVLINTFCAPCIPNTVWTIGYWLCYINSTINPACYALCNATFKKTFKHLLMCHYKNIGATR
Put plainly: Selectivity interaction (Safety Panel 44tm (Eurofins)) EUB0000162b CHRM2. The following applies: at 10 µM.

Experiment [3] has as its target Phosphatidylinositol 4,5-bisphosphate 3-kinase catalytic subunit alpha isoform (Homo sapiens) (UniProt P42336). Particulars: at 10 µM.
The target of experiment [4] is Tyrosine-protein kinase CSK (Homo sapiens) (UniProt P41240). Particulars: at 10 µM.
Experiment [5] concerns the target T3, Bone morphogenetic protein receptor type-2 (Homo sapiens) (UniProt Q13873).
T3 sequence (whole entry): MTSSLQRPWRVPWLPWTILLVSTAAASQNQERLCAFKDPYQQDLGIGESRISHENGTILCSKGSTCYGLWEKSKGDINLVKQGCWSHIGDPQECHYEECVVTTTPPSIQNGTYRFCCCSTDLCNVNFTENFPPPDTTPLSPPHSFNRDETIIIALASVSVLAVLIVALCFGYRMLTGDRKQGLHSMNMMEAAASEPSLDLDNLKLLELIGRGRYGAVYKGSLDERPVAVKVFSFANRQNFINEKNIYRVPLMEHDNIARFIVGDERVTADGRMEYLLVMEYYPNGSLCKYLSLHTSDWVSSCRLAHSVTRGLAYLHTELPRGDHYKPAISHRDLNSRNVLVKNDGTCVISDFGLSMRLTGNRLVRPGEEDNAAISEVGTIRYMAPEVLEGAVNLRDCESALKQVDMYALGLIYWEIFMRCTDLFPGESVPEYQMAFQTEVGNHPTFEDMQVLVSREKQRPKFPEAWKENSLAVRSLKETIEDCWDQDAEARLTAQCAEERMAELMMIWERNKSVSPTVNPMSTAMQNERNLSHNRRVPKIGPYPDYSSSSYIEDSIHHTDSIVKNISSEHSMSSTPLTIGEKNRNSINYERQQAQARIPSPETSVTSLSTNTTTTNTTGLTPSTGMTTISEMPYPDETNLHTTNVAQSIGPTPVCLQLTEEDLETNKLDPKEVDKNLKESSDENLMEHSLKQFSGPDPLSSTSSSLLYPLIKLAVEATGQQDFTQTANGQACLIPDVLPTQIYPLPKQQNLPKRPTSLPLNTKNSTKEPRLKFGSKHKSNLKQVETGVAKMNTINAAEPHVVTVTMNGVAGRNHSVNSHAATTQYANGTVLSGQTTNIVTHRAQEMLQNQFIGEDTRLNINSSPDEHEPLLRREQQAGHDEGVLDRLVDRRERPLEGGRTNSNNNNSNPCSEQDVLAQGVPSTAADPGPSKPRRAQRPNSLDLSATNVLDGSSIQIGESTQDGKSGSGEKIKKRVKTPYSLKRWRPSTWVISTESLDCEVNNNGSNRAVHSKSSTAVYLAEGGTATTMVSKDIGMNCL
The experiment in a line: Selectivity interaction (KinomeScan (DiscoverX)) EUB0001049a BMPR2. Particulars: at 1 µM.

The test system of experiment [6] is Hepatocyte growth factor receptor (Homo sapiens), P08581 [Y1235D]. Particulars: at 10 µM.
Hepatocyte growth factor receptor (Homo sapiens), P08581 [Y1235D], sequence (P08581 whole entry Y1235D): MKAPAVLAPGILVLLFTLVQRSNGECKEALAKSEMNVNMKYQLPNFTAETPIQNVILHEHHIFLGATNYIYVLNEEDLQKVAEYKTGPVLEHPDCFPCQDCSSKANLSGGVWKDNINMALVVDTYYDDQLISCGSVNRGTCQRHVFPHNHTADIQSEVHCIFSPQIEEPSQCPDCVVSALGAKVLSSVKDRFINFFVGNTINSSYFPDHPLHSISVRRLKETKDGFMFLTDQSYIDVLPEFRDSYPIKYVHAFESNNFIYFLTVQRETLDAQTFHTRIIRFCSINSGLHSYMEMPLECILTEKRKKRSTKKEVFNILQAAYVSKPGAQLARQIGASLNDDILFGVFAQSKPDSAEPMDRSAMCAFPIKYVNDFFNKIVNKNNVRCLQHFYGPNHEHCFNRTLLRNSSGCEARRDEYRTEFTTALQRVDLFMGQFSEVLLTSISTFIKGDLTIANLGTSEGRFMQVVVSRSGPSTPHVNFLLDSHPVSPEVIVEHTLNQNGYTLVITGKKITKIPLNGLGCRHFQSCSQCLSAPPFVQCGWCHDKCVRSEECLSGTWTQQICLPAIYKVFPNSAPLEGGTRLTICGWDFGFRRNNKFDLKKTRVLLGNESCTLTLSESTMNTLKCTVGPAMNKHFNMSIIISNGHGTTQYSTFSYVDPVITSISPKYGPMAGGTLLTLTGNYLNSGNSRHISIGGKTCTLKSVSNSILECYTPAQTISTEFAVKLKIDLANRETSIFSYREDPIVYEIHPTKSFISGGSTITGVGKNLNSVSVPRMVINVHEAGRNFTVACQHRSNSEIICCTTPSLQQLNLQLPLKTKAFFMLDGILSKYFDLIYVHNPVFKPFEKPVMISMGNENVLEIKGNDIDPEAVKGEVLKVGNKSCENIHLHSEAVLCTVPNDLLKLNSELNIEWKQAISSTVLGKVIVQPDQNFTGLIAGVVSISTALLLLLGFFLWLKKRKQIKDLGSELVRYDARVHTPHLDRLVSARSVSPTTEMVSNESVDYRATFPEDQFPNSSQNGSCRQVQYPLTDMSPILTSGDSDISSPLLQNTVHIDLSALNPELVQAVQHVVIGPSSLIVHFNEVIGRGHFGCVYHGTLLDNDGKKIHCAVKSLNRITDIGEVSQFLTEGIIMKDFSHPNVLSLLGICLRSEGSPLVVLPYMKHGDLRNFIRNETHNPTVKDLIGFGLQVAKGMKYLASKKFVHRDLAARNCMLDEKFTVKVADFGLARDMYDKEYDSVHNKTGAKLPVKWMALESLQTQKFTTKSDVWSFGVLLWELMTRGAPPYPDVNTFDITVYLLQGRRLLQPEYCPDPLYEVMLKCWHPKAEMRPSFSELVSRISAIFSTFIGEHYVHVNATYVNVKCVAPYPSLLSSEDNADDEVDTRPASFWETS

Phosphatidylinositol 4,5-bisphosphate 3-kinase catalytic subunit alpha isoform (Homo sapiens), sequence (P42336 whole entry, canonical isoform): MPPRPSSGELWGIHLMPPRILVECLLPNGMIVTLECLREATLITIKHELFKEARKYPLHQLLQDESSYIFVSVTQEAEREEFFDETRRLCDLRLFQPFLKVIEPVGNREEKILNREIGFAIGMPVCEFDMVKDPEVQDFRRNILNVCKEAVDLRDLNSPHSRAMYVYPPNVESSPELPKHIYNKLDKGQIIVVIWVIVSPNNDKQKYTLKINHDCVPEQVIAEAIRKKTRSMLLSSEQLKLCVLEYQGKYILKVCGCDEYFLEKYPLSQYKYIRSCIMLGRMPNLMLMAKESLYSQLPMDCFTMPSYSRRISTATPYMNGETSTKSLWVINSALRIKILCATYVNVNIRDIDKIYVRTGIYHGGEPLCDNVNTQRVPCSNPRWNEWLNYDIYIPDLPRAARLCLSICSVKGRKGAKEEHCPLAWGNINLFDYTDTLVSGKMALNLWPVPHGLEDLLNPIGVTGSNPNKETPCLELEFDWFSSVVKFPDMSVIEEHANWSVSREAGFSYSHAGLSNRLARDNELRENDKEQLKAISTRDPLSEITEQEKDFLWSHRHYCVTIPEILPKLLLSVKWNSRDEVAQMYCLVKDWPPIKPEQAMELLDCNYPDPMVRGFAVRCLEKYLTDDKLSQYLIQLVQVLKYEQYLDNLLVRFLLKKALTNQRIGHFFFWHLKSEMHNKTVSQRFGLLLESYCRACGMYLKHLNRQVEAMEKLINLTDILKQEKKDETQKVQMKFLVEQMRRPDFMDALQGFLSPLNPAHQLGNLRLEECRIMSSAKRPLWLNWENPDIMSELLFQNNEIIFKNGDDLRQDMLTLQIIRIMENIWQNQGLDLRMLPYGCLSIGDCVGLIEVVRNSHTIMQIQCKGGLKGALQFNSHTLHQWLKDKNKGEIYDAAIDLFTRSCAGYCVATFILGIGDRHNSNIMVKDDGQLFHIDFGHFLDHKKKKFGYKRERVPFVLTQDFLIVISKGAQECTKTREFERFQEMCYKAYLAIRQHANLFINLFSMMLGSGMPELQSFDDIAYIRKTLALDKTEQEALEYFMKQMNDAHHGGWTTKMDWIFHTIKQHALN
Tyrosine-protein kinase CSK (Homo sapiens), sequence (P41240 2-450 limits assumed): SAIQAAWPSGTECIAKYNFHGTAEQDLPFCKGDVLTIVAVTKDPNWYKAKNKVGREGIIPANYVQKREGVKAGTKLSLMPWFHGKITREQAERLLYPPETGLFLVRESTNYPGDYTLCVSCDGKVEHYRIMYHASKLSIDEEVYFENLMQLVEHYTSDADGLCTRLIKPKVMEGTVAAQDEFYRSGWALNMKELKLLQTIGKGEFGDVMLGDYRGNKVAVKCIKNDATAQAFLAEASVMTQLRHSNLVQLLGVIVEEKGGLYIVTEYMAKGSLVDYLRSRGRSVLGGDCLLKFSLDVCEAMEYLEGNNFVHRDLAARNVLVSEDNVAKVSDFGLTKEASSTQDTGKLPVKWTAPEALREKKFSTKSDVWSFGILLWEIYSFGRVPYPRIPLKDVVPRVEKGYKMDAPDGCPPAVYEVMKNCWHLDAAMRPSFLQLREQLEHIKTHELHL

Take `Cn1cc(-n2cnc3c(NCc4nc5cc(Cl)c(Cl)cc5[nH]4)nc(N4CCOCC4)nc32)cn1`: the % of inhibition in experiment [1] was -44.9%.
The compound `CN(C)C(=O)Cn1cc(-c2ccc(-c3cncc4ccccc34)cc2)cn1` returned a % of control in experiment [2] of 84%.
`CCC(=O)N1CC[C@H](Nc2ncnc3c2CN(c2cnc(OC)c(C(F)(F)F)c2)CC3)C1` [LENIOLISIB]: the % of inhibition in experiment [3] came to 96%.
For the compound `CCN(CC)CCCCNc1ncc2cc(-c3cc(OC)cc(OC)c3)c(NC(=O)NC(C)(C)C)nc2n1`, in experiment [4], the % of control worked out at 100%.
In the case of `COc1cc(Nc2nc(C)cc(-c3cnn4nc(OC)ccc34)n2)cc(C(F)(F)F)c1`, the % of control in experiment [5] amounted to 100%.
As for `COCC(=O)NC/C=C/c1ccc2ncnc(Nc3ccc(Oc4ccc(C)nc4)c(C)c3)c2c1` [CP-724714], the % of control in experiment [6] came out at 81%.

For the origin of these results see ChEMBL document CHEMBL5465560, “Selectivity Literature for EUbOPEN Chemogenomic Library” (2024).
